From patent US20110190244A1, “METHOD OF TREATMENT OF EGFR INHIBITOR TOXICITY” (priority 2010, published 2011)
pIC50: −log10 of the molar value. Like-named read-outs stand apart in the source and are kept apart here.

Columns and labels:
STS [1] = details: cited from earlier work
STS [2] = target: T1, STS (Homo sapiens, UniProt P08842); details: 40 mg dose; cited from earlier work
T1 construct: from tissue; host or cells: peripheral blood lymphocytes / mononuclear cells and breast tumour tissue of patients
T1 sequence (P08842 22-583): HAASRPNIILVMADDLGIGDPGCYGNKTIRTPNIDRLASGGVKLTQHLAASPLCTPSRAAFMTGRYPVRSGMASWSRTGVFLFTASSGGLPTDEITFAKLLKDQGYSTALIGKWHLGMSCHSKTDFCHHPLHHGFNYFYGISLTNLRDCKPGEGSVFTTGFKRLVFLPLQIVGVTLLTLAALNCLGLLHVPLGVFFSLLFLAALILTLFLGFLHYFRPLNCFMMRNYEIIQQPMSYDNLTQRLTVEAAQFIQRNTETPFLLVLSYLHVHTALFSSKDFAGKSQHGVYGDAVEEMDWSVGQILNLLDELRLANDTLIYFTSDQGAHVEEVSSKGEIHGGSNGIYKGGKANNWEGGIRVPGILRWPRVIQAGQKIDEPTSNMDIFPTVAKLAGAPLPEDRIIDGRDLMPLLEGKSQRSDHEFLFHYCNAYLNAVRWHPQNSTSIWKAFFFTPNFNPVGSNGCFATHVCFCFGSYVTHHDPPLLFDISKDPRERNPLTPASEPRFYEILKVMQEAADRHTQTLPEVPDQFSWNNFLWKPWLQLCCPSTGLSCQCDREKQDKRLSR

hERG current = target: T2, hERG current (Homo sapiens, UniProt Q12809); details: transfected HEK-293 cells, in vitro; read-out: hERG current inhibition IC50; cited from earlier work
T2 construct: expressed in transfected cells; host or cells: HEK-293

[3] = female patients, 80 mg oral dose; cited from earlier work
CYP2C19 = CYP2C19 (Homo sapiens, UniProt P33261); details: cited from earlier work
[4] = dogs, cited from earlier work
[5] = cited from earlier work
[6] = tested on: carcinogen-induced mammary tumours; details: ovariectomized rats; cited from earlier work
[7] = rats, single oral doses up to 1200 mg/kg; cited from earlier work
[8] = rats, 2000 mg/kg oral; cited from earlier work
[9] = Oral administration to radiotelemetry instrumented dogs for seven days; details: highest tested dose, versus 80 mg oral dose in patients
STS [10] = target: T1, STS; details: cited from earlier work
[11] = cited from earlier work; remark: listed apart in the source
[12] = dogs, 50, 250 and 1000 mg/kg/day; cited from earlier work
[13] = cited from earlier work; remark: listed apart in the source
[14] = cited from earlier work; remark: listed apart in the source
isolated Purkinje fibres = details: only at a high concentration of 50 μM; cited from earlier work
[15] = mice, 2000 mg/kg oral; cited from earlier work
[16] = cited from earlier work; for no observed adverse effect level (NOAEL): rats, repeated oral dose
[17] = Repeated dose 1- and 6-month oral toxicity, rats; type: in vivo; details: versus 80 mg oral dose in patients
Text: However, there was a slightly lower exposure over time in rats compared to dogs. […] In vitro and in vivo metabolic studies have shown a large number of metabolites with qualitatively similar in vitro profiles in rats, dogs and man. […] Based on the pharmacokinetic parameters of BN83495, it is not expected to have any significant interaction with EGFR inhibitor/s which are metabolised predominantly by CYP3A4 (Roche products—Tarceva Product Information)
The no observed adverse effect level (NOAEL) was 200 mg/kg/day for males and 50 mg/kg/day for females.

[18] = rats, 25, 50, 100 and 200 mg/kg/day

T2 sequence (Q12809 whole entry): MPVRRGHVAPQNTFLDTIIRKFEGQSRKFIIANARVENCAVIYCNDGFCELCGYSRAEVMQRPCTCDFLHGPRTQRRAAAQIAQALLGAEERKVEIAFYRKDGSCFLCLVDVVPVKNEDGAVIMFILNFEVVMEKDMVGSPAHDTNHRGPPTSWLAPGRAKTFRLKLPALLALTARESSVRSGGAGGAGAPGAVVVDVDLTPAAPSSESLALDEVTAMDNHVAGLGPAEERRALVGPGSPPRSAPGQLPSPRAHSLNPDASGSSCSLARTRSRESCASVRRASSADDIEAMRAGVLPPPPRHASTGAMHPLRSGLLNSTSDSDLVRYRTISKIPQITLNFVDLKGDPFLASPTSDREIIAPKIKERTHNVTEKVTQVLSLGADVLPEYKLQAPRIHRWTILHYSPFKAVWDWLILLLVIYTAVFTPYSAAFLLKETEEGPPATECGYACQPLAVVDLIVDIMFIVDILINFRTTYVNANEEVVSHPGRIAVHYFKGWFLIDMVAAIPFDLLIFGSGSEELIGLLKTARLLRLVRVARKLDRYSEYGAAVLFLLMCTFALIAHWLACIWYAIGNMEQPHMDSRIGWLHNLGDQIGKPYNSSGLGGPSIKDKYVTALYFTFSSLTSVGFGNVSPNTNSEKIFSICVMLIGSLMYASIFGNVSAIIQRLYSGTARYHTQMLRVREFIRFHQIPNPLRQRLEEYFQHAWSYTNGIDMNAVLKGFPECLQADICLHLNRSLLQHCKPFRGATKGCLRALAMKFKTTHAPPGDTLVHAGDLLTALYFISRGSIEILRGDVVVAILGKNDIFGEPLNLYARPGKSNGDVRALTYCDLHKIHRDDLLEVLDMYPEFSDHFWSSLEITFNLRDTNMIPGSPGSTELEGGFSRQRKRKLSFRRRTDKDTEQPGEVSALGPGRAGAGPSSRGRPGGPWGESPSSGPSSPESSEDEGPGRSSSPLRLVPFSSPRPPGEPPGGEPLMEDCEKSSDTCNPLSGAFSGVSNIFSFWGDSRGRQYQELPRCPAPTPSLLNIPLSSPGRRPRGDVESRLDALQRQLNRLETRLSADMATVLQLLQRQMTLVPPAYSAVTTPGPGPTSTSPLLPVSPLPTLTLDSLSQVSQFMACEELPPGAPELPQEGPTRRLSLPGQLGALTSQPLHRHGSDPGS
CYP2C19, sequence (P33261 whole entry): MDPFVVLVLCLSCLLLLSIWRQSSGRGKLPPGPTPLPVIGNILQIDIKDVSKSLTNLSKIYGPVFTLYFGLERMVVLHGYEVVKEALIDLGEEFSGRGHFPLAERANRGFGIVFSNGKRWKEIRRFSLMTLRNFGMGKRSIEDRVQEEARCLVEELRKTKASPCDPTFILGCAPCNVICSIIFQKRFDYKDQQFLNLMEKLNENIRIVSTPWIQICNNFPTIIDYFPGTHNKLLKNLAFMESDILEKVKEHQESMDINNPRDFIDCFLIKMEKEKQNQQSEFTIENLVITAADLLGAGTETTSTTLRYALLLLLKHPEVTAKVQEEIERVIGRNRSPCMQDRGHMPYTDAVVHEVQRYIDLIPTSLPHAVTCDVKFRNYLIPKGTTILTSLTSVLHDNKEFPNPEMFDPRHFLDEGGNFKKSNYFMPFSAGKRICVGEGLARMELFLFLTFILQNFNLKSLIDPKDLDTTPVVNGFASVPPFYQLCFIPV

In the case of CCCN1C(=O)CC2C3CCc4cc(OS(N)(=O)=O)ccc4C3CC[C@]2(C)C1=O (some centres unmarked) [STX213], the “STS inhibition in rodents” value (STS [1]; rodents) is given as “effectively inhibit STS activity”.
In the case of NS(=O)(=O)Oc1ccc2c3c(c(=O)oc2c1)CCCCC3 [BN83495, Sulphamic acid, 6,7,8,9,10,11-hexahydro-6-oxobenzo[b]cyclohepta[d]pyran-3-yl ester], the “inhibition of STS in peripheral blood mononuclear cells” value (STS [2]) is given as 95%, the “STS inhibition in rodents” value (STS [1]; in vivo) is given as “potent STS inhibitor” and the pIC50 (hERG current) is given as 4.89. For the same molecule, the “mean steady state plasma AUC” value [3] was 1293 ng·h/mL, the “mean steady state plasma Cmax” value [3] was 159 ng/mL and the “potential clinically significant induction/inhibition of a CYP450 isoenzyme” value (CYP2C19) was “inhibition of CYP2C19”. For the same molecule, the haemodynamic effects ([4]; at both doses (150 and 400 mg/kg/day)) was “transient hypotension and reflex tachycardia”, the ECG changes ([4]; oral 150 and 400 mg/kg/day for seven consecutive days) was “did not induce any clinically relevant ECG changes” and the protein binding [5] was “highly protein bound”. The “growth of mammary tumours stimulated by estrone sulphate (E1S)” value [6] was “blocked the ability of estrone sulphate (E1S) to stimulate the growth”, the “effect on behaviour or respiration” value [7] was “no effect on behaviour or respiration” and the “adverse effects in single dose oral toxicity study” value [8] was “did not show any adverse effects”. For the same molecule, the “mean maximum plasma exposure relative to mean steady state plasma AUC in female patients” value [9] was 62 fold, the “mean maximum plasma exposure relative to mean steady state plasma Cmax in female patients” value [9] was 103 fold and the “patients with more than 90% STS inhibition in tumour tissue” value (STS [10]; 5 mg dose) was 3 out of 4. The “patients with more than 90% STS inhibition in tumour tissue” value (STS [10]; 20 mg dose, patients in whom it was measured) was “all 3”, the “inhibition of STS activity in peripheral blood lymphocytes” value (STS [10]; 24 hours after dosing on Day 5, both dose groups (5 mg, 20 mg daily)) was “more than 90%” and the absorption ([11]; non-clinical studies) was “rapid absorption”. The elimination of radioactivity ([11]; preclinical models, by biotransformation) was “mainly via urine”, the distribution ([11]; rats, primarily in blood and related organs, intestine, liver and kidneys) was “widely distributed” and the erythrocyte uptake ([11]; uptake and retention related to carbonic anhydrase II enzyme) was “sequestered in erythrocytes”. The adrenal findings [12] was “adrenal cortical cell hypertrophy was seen in all treated animal groups”, the kidney findings [12] was “flattened tubular epithelium in one high dose animal/sex” and the liver findings [12] was “hepatocellular vacuolation in both sexes at 50 mg/kg/day and in females at 250 and 1000 mg/kg/day”. The tolerability ([13]; doses 1 mg up to 80 mg) was “well tolerated up to a dose of 40 mg”, the “drug-related adverse events, Grade 3” value ([13]; observed in 2 patients) was 4 and the “effect on ECG parameters” value ([13]; preliminary review of ECG data) was “does not have an effect on ECG parameters”. For the same molecule, the “patients with stable disease for more than 6 months” value ([13]; three higher dose groups) was “Four”, the dose limiting toxicity ([13]; up to a dose of 40 mg) was “no dose limiting toxicity was observed” and the “best response: stable disease” value ([14]; 14 patients, 5 mg or 20 mg) was 4 patients. For the same molecule, the “serum concentrations of oestradiol, androstenediol and testosterone” value ([14]; Day 5 assessment) was “significant decreases”, the tolerability ([14]; both tested doses (5 mg, 20 mg)) was “well tolerated” and the “dose proportionality of Cmax, AUC and mean plasma clearance” value ([14]; patients, 5 mg and 20 mg) was “non dose proportional pharmacokinetics”. For the same molecule, the “serum DHEA concentration” value ([14]; patients, 5 mg or 20 mg) was “significant decreases”, the “action potential duration (APD)” value (isolated Purkinje fibres) was “increased action potential duration” and the “adverse effects in single dose oral toxicity study” value [15] was “did not show any adverse effects”. The “plasma exposure versus dose” value ([16]; 6-month repeat dose rat toxicology studies, Day 1) was “proportional to dose”, the “bone findings (femur, tibia and sternum)” value [16, 18] was “partially reversible osteoid deposition at all treated dose-levels” and the liver findings [16, 18] was “reversible hepatocellular vacuolation in all treated groups”. For the same molecule, the “no observed adverse effect level (NOAEL)” value ([16]; females) was 50 mg/kg/day, the “no observed adverse effect level (NOAEL)” value ([16]; males) was 200 mg/kg/day and the “exposure (AUC) in rats relative to mean AUC in female patients” value ([17]; female rats) was 14 fold. The “exposure (AUC) in rats relative to mean AUC in female patients” value ([17]; male rats) was 31 fold.
